Columns and labels:
Conditions in all cases: incubation time: 72 h
[1] = system: BT-474; experiment: normalised viability (% of control), CellTiter-Blue; higher = more viable cells (about 100 = DMSO control)
Method in brief: (§1)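 384-well plates were pre-loaded with compound in 5 µl medium before 20 µl of breast cancer cell suspension was seeded. Following 72 h incubation, 2.5 µl CellTiter-Blue reagent was added for 2 h at 37 °C. Fluorescence was read at 560/590 nm and plates were normalised to vehicle (100) and a positive kill control (0), checked by Z'-factor. Normalised viability is reported at a single listed concentration of the series.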

[2] = system: BT-549; experiment: as above
Method in brief: as §1

[3] = system: CAL-120; experiment: as above
Method in brief: as §1

[4] = system: CAL-148; experiment: as above
Method in brief: as §1

[5] = system: CAL-51; experiment: as above
Method in brief: as §1

[6] = system: CAL-85-1; experiment: as above
Method in brief: as §1

[7] = system: DU-4475; experiment: as above
Method in brief: as §1

[8] = system: HCC1143; experiment: as above
Method in brief: as §1

[9] = system: HCC1599; experiment: as above
Method in brief: as §1

[10] = system: HCC1937; experiment: as above
Method in brief: as §1

[11] = system: HDQ-P1; experiment: as above
Method in brief: as §1

[12] = system: Hs578T; experiment: as above
Method in brief: as §1

[13] = system: MDA-MB-231; experiment: as above
Method in brief: as §1

[14] = system: MDA-MB-436; experiment: as above
Method in brief: as §1

[15] = system: MDA-MB-453; experiment: as above
Method in brief: as §1

[16] = system: MDA-MB-468; experiment: as above
Method in brief: as §1

[17] = system: MFM-223; experiment: as above
Method in brief: as §1

[18] = system: SK-BR-3; experiment: as above
Method in brief: as §1

[19] = system: HCC1143; experiment: drug sensitivity score (DSS), CellTiter-Blue viability (DSS (AUC-based score)); higher = stronger viability inhibition; extreme values may be limits of the assay
Method in brief: (§2)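 A 72 h incubation followed seeding of breast cancer cell lines (20 µl suspension) into 384-well plates holding compound in a 5- or 9-concentration series. CellTiter-Blue, 2.5 µl per well, was incubated 2 h at 37 °C, and fluorescence was measured at 560/590 nm. Normalisation on every plate used 0.1 % DMSO and a positive kill control. From the fitted dose-response curve, the area under the curve was taken as the drug sensitivity score.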

[20] = system: MDA-MB-468; experiment: as above
Method in brief: as §2

[21] = system: SK-BR-3; experiment: as above
Method in brief: as §2

[22] = system: MDA-MB-231; experiment: drug sensitivity score (DSS), CellTox Green (DSS (AUC-based score)); higher = stronger drug effect (viability inhibition or cytotoxicity); extreme values may be limits of the assay
Method in brief: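 Breast cancer cell lines, seeded as 20 µl suspension, were incubated 72 h with compound in 384-well plates at 5 concentrations in 10-fold steps over a 10,000-fold range set for each compound. Fluorescence from CellTox Green was read at 485/520 nm before CellTiter-Glo luminescence, which was read after 10 min at room temperature. Every plate was normalised to 0.1 % DMSO and a positive kill control, and the drug sensitivity score was taken from the area under the fitted dose-response curve.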

NC(=O)c1ccc(I)c([N+](=O)[O-])c1 [Iniparib]
normalised viability [%]
Conditions | 3 nM | 10 nM | 30 nM | 100 nM | 1000 nM | 10000 nM
[1] | – | 95.2 | – | – | 106 | 96.6
[2] | – | 104 | – | – | 112 | 116
[3] | – | 87.3 | – | – | 98.6 | 72.7
[4] | 85.6 | – | 92.8 | 90.2 | – | –
[5] | 92.6 | – | 92.9 | 96.4 | – | –
[6] | 91.5 | – | 83.8 | 89.5 | – | –
[7] | 84.1 | – | 73.9 | 98.8 | – | –
[8] | – | 93.6 | – | – | 102 | 91.3
[9] | – | 88.3 | – | – | 88.3 | 89.8
[10] | – | 86 | – | – | 97.4 | 97.6
[11] | 99.3 | – | 104 | 111 | – | –
[12] | – | 115 | – | – | 108 | 109
[13] | – | 88.1 | – | – | 89.6 | 111
[14] | – | 104 | – | – | 116 | 109
[15] | 91.7 | – | 94.7 | 99.9 | – | –
[16] | – | 97.9 | – | – | 107 | 91.6
[17] | – | 93.9 | – | – | 99 | 95.4
[18] | – | 89.7 | – | – | 104 | 91.5

Conditions | drug sensitivity score
[19] | 0
[20] | 0
[21] | 0
[22] | 0

Source: the supplement of paper PMC4862054
